Laboratory results taken from patent EP2970215B1, “PYRROLIDINE DERIVATIVES, PHARMACEUTICAL COMPOSITIONS CONTAINING THEM, AND THEIR USE IN THERAPY” (AbbVie Deutschland GmbH & Co. KG, priority 2013, dated 2014).
pKi: −log10 of the molar value.

Molecular target: T1, human GlyT1c transporter (Homo sapiens, UniProt P48067)
T1 construct: expressed in transfected cells; host or cells: CHO cells (recombinant; line hGlyT1c_5_CHO is named for the uptake assay)
T1 sequence (P48067 1-706): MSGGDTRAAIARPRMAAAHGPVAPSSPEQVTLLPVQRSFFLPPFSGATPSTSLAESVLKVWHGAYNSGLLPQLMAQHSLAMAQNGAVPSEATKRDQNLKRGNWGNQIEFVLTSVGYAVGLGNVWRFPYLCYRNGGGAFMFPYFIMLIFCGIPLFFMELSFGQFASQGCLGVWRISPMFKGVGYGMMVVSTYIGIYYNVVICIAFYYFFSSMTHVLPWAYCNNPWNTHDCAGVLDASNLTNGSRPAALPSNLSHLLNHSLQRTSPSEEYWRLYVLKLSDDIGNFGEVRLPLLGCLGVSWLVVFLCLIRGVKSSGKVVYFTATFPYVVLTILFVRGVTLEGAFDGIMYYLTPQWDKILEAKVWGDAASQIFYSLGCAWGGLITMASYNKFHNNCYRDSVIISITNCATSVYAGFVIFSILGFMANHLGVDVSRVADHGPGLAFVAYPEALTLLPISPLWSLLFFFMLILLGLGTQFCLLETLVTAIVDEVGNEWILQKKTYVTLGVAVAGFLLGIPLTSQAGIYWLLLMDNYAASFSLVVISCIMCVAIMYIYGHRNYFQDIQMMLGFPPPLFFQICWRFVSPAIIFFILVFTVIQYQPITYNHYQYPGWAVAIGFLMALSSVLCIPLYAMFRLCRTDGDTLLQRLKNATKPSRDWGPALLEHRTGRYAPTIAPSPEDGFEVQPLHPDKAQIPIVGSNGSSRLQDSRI
Experiment: Radioligand binding assay using recombinant CHO cell membranes expressing human GlyT1
Conditions: radioligand binding to human GlyT1c transporter-expressing membranes
Excerpt: 2. Radioligand binding assays using recombinant CHO cell membranes expressing human GlyT1: […]

**Q.** With `Cc1nc(Cl)cc(N[C@H]2CN(S(=O)(=O)c3cn(C)cn3)C[C@@H]2c2ccc(F)cc2)n1` [Example 690, 6-chloro-N-{(3R,4S)-4-(4-fluorophenyl)-1-[(1-methyl-1H-imidazol-4-yl)sulfonyl]pyrrolidin-3-yl}-2-methylpyrimidin-4-amine] as the molecule, how does the pKi read?
**A.** Its pKi is no less than 6.00.

**Q.** `Cn1cnc(S(=O)(=O)N2C[C@H](Nc3cc(Cl)ncn3)[C@@H](c3ccc(F)cc3)C2)c1` [Example 691, 6-chloro-N-{(3R,4S)-4-(4-fluorophenyl)-1-[(1-methyl-1H-imidazol-4-yl)sulfonyl]pyrrolidin-3-yl}pyrimidin-4-amine] was tested. Which pKi did it give?
**A.** The pKi was no less than 7.00.

**Q.** With `Cn1cnc(S(=O)(=O)N2C[C@H](NC(=O)Nc3ccccc3)[C@@H](c3ccc(F)cc3)C2)c1` [Example 692, 1-{(3R,4S)-4-(4-fluorophenyl)-1-[(1-methyl-1H-imidazol-4-yl)sulfonyl]pyrrolidin-3-yl}-3-phenylurea] as the molecule, how does the pKi read?
**A.** The pKi was no less than 6.00.

**Q.** How did the pKi turn out when `Cn1cnc(S(=O)(=O)N2C[C@H](NC(=O)Oc3ccccc3)[C@@H](c3ccc(F)cc3)C2)c1` [Example 693, phenyl {(3R,4S)-4-(4-fluorophenyl)-1-[(1-methyl-1H-imidazol-4-yl)sulfonyl]pyrrolidin-3-yl}carbamate] was run?
**A.** Its pKi is no less than 5.00.

**Q.** `Cn1cnc(S(=O)(=O)N2C[C@H](NC(=O)Nc3ccccc3Cl)[C@@H](c3ccc(F)cc3)C2)c1` [Example 694, 1-(2-chlorophenyl)-3-{(3R,4S)-4-(4-fluorophenyl)-1-[(1-methyl-1H-imidazol-4-yl)sulfonyl]pyrrolidin-3-yl}urea] was tested. Which pKi did it give?
**A.** Its pKi is no less than 6.00.

**Q.** `CC(=O)CCCC(=O)N[C@H]1CN(S(=O)(=O)c2cn(C)cn2)C[C@@H]1c1ccc(F)cc1` [Example 695, N-{(3R,4S)-4-(4-fluorophenyl)-1-[(1-methyl-1H-imidazol-4-yl)sulfonyl]pyrrolidin-3-yl}-5-oxohexanamide] was tested. Which pKi did it give?
**A.** Its pKi is no less than 5.00.

**Q.** `Cn1cnc(S(=O)(=O)N2C[C@H](NC(=O)C3CCC(C(F)(F)F)CC3)[C@@H](c3ccc(F)cc3)C2)c1` (stereo partly drawn) [Example 696, N-{(3R,4S)-4-(4-fluorophenyl)-1-[(1-methyl-1H-imidazol-4-yl)sulfonyl]pyrrolidin-3-yl}-4-(trifluoromethyl)cyclohexanecarboxamide] was tested. Which pKi did it give?
**A.** Its pKi is no less than 5.00.

**Q.** How did the pKi turn out when `CCCCOC(=O)O[C@@H]1CN(S(=O)(=O)c2cn(C)cn2)C[C@H]1c1ccc(F)cc1` [Example 697, butyl (3S,4R)-4-(4-fluorophenyl)-1-[(1-methyl-1H-imidazol-4-yl)sulfonyl]pyrrolidin-3-yl carbonate] was run?
**A.** Its pKi is no less than 6.00.

**Q.** With `Cn1cnc(S(=O)(=O)N2C[C@H](NC(=O)CCCC(F)(F)F)[C@@H](c3ccc(F)cc3)C2)c1` [Example 698, 5,5,5-trifluoro-N-{(3R,4S)-4-(4-fluorophenyl)-1-[(1-methyl-1H-imidazol-4-yl)sulfonyl]pyrrolidin-3-yl}pentanamide] as the molecule, how does the pKi read?
**A.** The pKi was no less than 6.00.

**Q.** How did the pKi turn out when `CCCC(F)(F)C(=O)N[C@H]1CN(S(=O)(=O)c2cn(C)cn2)C[C@@H]1c1ccc(F)cc1` [Example 700, 2,2-difluoro-N-{(3R,4S)-4-(4-fluorophenyl)-1-[(1-methyl-1H-imidazol-4-yl)sulfonyl]pyrrolidin-3-yl}pentanamide] was run?
**A.** Its pKi is no less than 5.00.

**Q.** `Cn1cnc(S(=O)(=O)N2C[C@H](NC(=O)Nc3ccc(Cl)cc3)[C@@H](c3ccc(F)cc3)C2)c1` [Example 701, 1-(4-chlorophenyl)-3-{(3R,4S)-4-(4-fluorophenyl)-1-[(1-methyl-1H-imidazol-4-yl)sulfonyl]pyrrolidin-3-yl}urea] was tested. Which pKi did it give?
**A.** Its pKi is no less than 6.00.

**Q.** How did the pKi turn out when `Cn1cnc(S(=O)(=O)N2C[C@H](NC(=O)Nc3ccccc3F)[C@@H](c3ccc(F)cc3)C2)c1` [Example 702, 1-(2-fluorophenyl)-3-{(3R,4S)-4-(4-fluorophenyl)-1-[(1-methyl-1H-imidazol-4-yl)sulfonyl]pyrrolidin-3-yl}urea] was run?
**A.** Its pKi is no less than 5.00.

**Q.** `Cn1cnc(S(=O)(=O)N2C[C@H](NC(=O)Nc3cccc(F)c3)[C@@H](c3ccc(F)cc3)C2)c1` [Example 703, 1-(3-fluorophenyl)-3-{(3R,4S)-4-(4-fluorophenyl)-1-[(1-methyl-1H-imidazol-4-yl)sulfonyl]pyrrolidin-3-yl}urea] was tested. Which pKi did it give?
**A.** The pKi was no less than 6.00.

**Q.** With `Cn1cnc(S(=O)(=O)N2C[C@H](NC(=O)Nc3ccc(F)cc3)[C@@H](c3ccc(F)cc3)C2)c1` [Example 704, 1-(4-fluorophenyl)-3-{(3R,4S)-4-(4-fluorophenyl)-1-[(1-methyl-1H-imidazol-4-yl)sulfonyl]pyrrolidin-3-yl}urea] as the molecule, how does the pKi read?
**A.** The pKi was no less than 6.00.

**Q.** With `Cn1cnc(S(=O)(=O)N2C[C@H](NC(=O)NCc3ccccc3Cl)[C@@H](c3ccc(F)cc3)C2)c1` [Example 705, 1-(2-chlorobenzyl)-3-{(3R,4S)-4-(4-fluorophenyl)-1-[(1-methyl-1H-imidazol-4-yl)sulfonyl]pyrrolidin-3-yl}urea] as the molecule, how does the pKi read?
**A.** Its pKi is no less than 6.00.

**Q.** How did the pKi turn out when `Cn1cnc(S(=O)(=O)N2C[C@H](Nc3cc(Cl)c(Cl)cn3)[C@@H](c3ccc(F)cc3)C2)c1` [Example 706, 4,5-dichloro-N-{(3R,4S)-4-(4-fluorophenyl)-1-[(1-methyl-1H-imidazol-4-yl)sulfonyl]pyrrolidin-3-yl}pyridin-2-amine] was run?
**A.** Its pKi is no less than 5.00.

**Q.** With `Cn1cnc(S(=O)(=O)N2C[C@H](NCC3CCC(C(F)(F)F)CC3)[C@@H](c3ccc(F)cc3)C2)c1` (stereo partly drawn) [Example 707, (3R,4S)-4-(4-fluorophenyl)-1-[(1-methyl-1H-imidazol-4-yl)sulfonyl]-N-{[4-(trifluoromethyl)cyclohexyl]methyl}pyrrolidin-3-amine] as the molecule, how does the pKi read?
**A.** Its pKi is no less than 6.00.

**Q.** With `CCCCC(F)(F)C(=O)N[C@H]1CN(S(=O)(=O)c2cn(C)cn2)C[C@@H]1c1ccc(F)cc1` [Example 708, 2,2-difluoro-N-{(3R,4S)-4-(4-fluorophenyl)-1-[(1-methyl-1H-imidazol-4-yl)sulfonyl]pyrrolidin-3-yl}hexanamide] as the molecule, how does the pKi read?
**A.** The pKi was no less than 5.00.

**Q.** With `Cn1cnc(S(=O)(=O)N2CC(Nc3ccc(Cl)c(C(F)(F)F)c3)C(c3ncco3)C2)c1` (stereo not shown) [Example 710, N-[4-chloro-3-(trifluoromethyl)phenyl]-1-[(1-methyl-1H-imidazol-4-yl)sulfonyl]-4-(1,3-oxazol-2-yl)pyrrolidin-3-amine] as the molecule, how does the pKi read?
**A.** Its pKi is no less than 6.00.

**Q.** How did the pKi turn out when `CCOc1cc(N[C@H]2CN(S(=O)(=O)c3cn(C)cn3)C[C@@H]2c2ccc(F)cc2)ncn1` [Example 715, 6-ethoxy-N-{(3R,4S)-4-(4-fluorophenyl)-1-[(1-methyl-1H-imidazol-4-yl)sulfonyl]pyrrolidin-3-yl}pyrimidin-4-amine] was run?
**A.** The pKi was no less than 6.00.

**Q.** How did the pKi turn out when `CCCCOc1cc(N[C@H]2CN(S(=O)(=O)c3cn(C)cn3)C[C@@H]2c2ccc(F)cc2)ncn1` [Example 717, 6-butoxy-N-{(3R,4S)-4-(4-fluorophenyl)-1-[(1-methyl-1H-imidazol-4-yl)sulfonyl]pyrrolidin-3-yl}pyrimidin-4-amine] was run?
**A.** The pKi was no less than 7.00.

**Q.** With `CC(C)COc1cc(N[C@H]2CN(S(=O)(=O)c3cn(C)cn3)C[C@@H]2c2ccc(F)cc2)ncn1` [Example 718, N-{(3R,4S)-4-(4-fluorophenyl)-1-[(1-methyl-1H-imidazol-4-yl)sulfonyl]pyrrolidin-3-yl}-6-(2-methylpropoxy)pyrimidin-4-amine] as the molecule, how does the pKi read?
**A.** Its pKi is no less than 7.00.

**Q.** With `Cn1cnc(S(=O)(=O)N2C[C@H](Nc3cc(OC4CCCC4)ncn3)[C@@H](c3ccc(F)cc3)C2)c1` [Example 720, 6-(cyclopentyloxy)-N-{(3R,4S)-4-(4-fluorophenyl)-1-[(1-methyl-1H-imidazol-4-yl)sulfonyl]pyrrolidin-3-yl}pyrimidin-4-amine] as the molecule, how does the pKi read?
**A.** Its pKi is no less than 7.00.

**Q.** `Cn1cnc(S(=O)(=O)N2C[C@H](Nc3cc(OC4CCCCC4)ncn3)[C@@H](c3ccc(F)cc3)C2)c1` [Example 721, 6-(cyclohexyloxy)-N-{(3R,4S)-4-(4-fluorophenyl)-1-[(1-methyl-1H-imidazol-4-yl)sulfonyl]pyrrolidin-3-yl}pyrimidin-4-amine] was tested. Which pKi did it give?
**A.** The pKi was no less than 7.00.

**Q.** `Cn1cnc(S(=O)(=O)N2C[C@H](Nc3cc(-c4ccccc4)ncn3)[C@@H](c3ccc(F)cc3)C2)c1` [Example 722, N-{(3R,4S)-4-(4-fluorophenyl)-1-[(1-methyl-1H-imidazol-4-yl)sulfonyl]pyrrolidin-3-yl}-6-phenylpyrimidin-4-amine] was tested. Which pKi did it give?
**A.** Its pKi is no less than 8.00.

**Q.** With `Cc1ccccc1-c1cc(N[C@H]2CN(S(=O)(=O)c3cn(C)cn3)C[C@@H]2c2ccc(F)cc2)ncn1` [Example 723, N-{(3R,4S)-4-(4-fluorophenyl)-1-[(1-methyl-1H-imidazol-4-yl)sulfonyl]pyrrolidin-3-yl}-6-(2-methylphenyl)pyrimidin-4-amine] as the molecule, how does the pKi read?
**A.** Its pKi is no less than 7.00.

**Q.** With `Cc1cccc(-c2cc(N[C@H]3CN(S(=O)(=O)c4cn(C)cn4)C[C@@H]3c3ccc(F)cc3)ncn2)c1` [Example 724, N-{(3R,4S)-4-(4-fluorophenyl)-1-[(1-methyl-1H-imidazol-4-yl)sulfonyl]pyrrolidin-3-yl}-6-(3-methylphenyl)pyrimidin-4-amine] as the molecule, how does the pKi read?
**A.** Its pKi is no less than 7.00.

**Q.** `Cn1cnc(S(=O)(=O)N2C[C@H](Nc3cc(-c4ccccc4F)ncn3)[C@@H](c3ccc(F)cc3)C2)c1` [Example 726, 6-(2-fluorophenyl)-N-{(3R,4S)-4-(4-fluorophenyl)-1-[(1-methyl-1H-imidazol-4-yl)sulfonyl]pyrrolidin-3-yl}pyrimidin-4-amine] was tested. Which pKi did it give?
**A.** Its pKi is no less than 7.00.
